Laboratory results from patent US9101613B2, “Methods for treating neurological disease” (Neurim Pharmaceuticals (1991) Ltd., priority 2006, dated 2015).
Like-named read-outs stand apart in the source and are kept apart here.

Key:
MT-2 receptor = biological target: T1, MT-2 receptor (Homo sapiens, UniProt P49286); assay: 125I-melatonin binding in membranes of CHP-K1 cells, MT-2; settings: for inhibition at 10 µM: read-out: MT-2 receptor binding % inhibition by 10 μM
T1 construct: expressed in transfected cells; host or cells: CHP-K1 (Chinese hamster ovary) cells (so in the source)
T1 sequence (P49286 1-362): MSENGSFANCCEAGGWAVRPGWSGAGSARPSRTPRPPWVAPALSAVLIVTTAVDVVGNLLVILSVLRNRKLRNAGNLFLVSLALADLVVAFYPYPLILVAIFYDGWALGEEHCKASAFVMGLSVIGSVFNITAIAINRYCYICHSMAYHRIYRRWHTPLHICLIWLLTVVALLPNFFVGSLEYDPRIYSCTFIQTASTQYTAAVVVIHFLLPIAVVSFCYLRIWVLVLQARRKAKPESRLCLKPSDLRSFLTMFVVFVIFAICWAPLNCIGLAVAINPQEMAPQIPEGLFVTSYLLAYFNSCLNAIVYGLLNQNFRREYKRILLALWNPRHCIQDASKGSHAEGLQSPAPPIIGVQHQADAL
Method: (§1) Aliquots of suspended membranes of human recombinant CHP-K1 (Chinese hamster ovary) cells stably expressing human melatonin-1 or melatonin-2 (MT-1 or MT-2) receptors or of hamster brain (MT-3) were incubated at 25° C. with 0.05 nM ^125I-melatonin in buffer (25 mM HEPES, pH 7.4, 5 mM MgCl2, 1 mM CaCl2, 0.5% BSA) or with 0.1 nM for MT-3 alone or in the presence of 1 nM, 10 nM, 0.1 μM, 1 μM and 10 μM of test substances N-[2-(5-methoxy-indol-3-yl)-ethyl]-commenamide, N-[2-(5-methoxy-indol-3-yl)-ethyl]-comanilamide, N-[2-(5-methoxy-indol-3-yl)-ethyl]-coumalylamide, N-[2-(5-methoxy-indol-3-yl)-ethyl]-2-methoxy-commenamide, N-[2-(5-methoxy-indol-3-yl)-ethyl]-chelidonamide, O-[2-(5-methoxy-indol-3-yl)-ethyl]-comenic ester, N-[2-(5-methoxy-indol-3-yl)-ethyl]-2-Pyrone-6-carboxamide and N-[2-(2-bromo-5-methoxy-indol-3-yl)-ethyl]-coumalylamide for 3 hours for MT-1, 4 hours for MT-2 and 30 min for MT-3. The binding reaction was terminated and the membranes were washed with 4 ml of ice-cold HEPES buffer by vacuum filtration. Membranes were then collected, and the filters containing the bound ^125I-melatonin were assayed for the amount of radioactivity in a […]. Non-specific binding was evaluated using a reaction with 1 μM 6-chloromelatonin (MT-1 and MT-2) or 30 μM melatonin (MT-3).

MT-1 receptor = biological target: T2, MT-1 receptor (Homo sapiens, UniProt P48039); assay: 125I-melatonin binding in membranes of CHP-K1 cells, MT-1; settings: for inhibition at 10 µM: read-out: MT-1 receptor binding % inhibition by 10 μM
T2 construct: expressed in transfected cells; host or cells: CHP-K1 (Chinese hamster ovary) cells (so in the source)
Method: as §1

CD1 mice = assay: Potentiation of hexobarbital-Na sleep time in mice; format: in vivo; settings: for effect on hexobarbital-Na narcosis time: 100 mg/kg i.p.; for Changes (%) vs. Vehicle (sleep time) / Mean Sleep Time-Treatment (min) ± SE: 100 mg/kg i.p. 15 min before 50 mg/kg hexobarbital-Na i.v.; for Mean Sleep Time-Treatment (min) ± SE: loss to recovery of righting reflex
Method: CD1 mice were divided randomly into groups of seven mice each. The mice in each group were administered intraperitoneally a dose of one of the following: 100 mg/kg of one of test substances O-[2-(5-methoxy-indol-3-yl)-ethyl]-comenic ester, N-[2-(5-methoxyindol-3-yl)-ethyl]-commenamide, N-[2-(5-methoxy-indol-3-yl)-ethyl]-coumalylamide, N-[2-(5-methoxy-indol-3-yl)-ethyl]-chelidonamide, N-[2-(5-methoxy-indol-3-yl)-ethyl]-comanilamide or N-[2-(5-methoxy-indol-3-yl)-ethyl]-2-methoxy-commenamide in saline (0.1 ml/10 g body weight), or saline alone. Fifteen minutes later the mice received a dose of 50 mg/kg of hexobarbital-Na intravenously. Sleep time was measured in each animal as the time from loss to recovery of the righting reflex.

5-HT1B receptor = biological target: T3, 5-HT1B receptor (Homo sapiens, UniProt P28222); assay: Serotonin receptor binding, [125I] Cyanopindolol, CHO-K1 membranes
T3 construct: expressed in transfected cells; host or cells: CHO-K1
Method: (§2) Aliquots of suspended membranes of human recombinant CHO-K1 cells stably expressing human 5-HT1A, 5-HT2A, 5-HT1B, 5-HT2B, 5-HT2C, 5-HT4, 5-HT6 or 5-HT7 receptors were pre-incubated at 25° C. with 1.5 nM [^3H] 8-OH-DPAT (5-HT1A), 1.5 nM [^3H] Ketanserin (5-HT2A), 0.01 nM [^125I] Cyanopindolol (5-HT1B), 1 nM [^3H] Mesulergine (5-HT2c), 0.7 nM [^3H] GR-113808 (5-HT4) or at 37° C. 1.2 nM [^3H] LSD (5-HT2B, 5-HT6 and 5-HT7) in buffer (50 mM Tris-HCl, pH 7.7) alone or in the presence of 1 nM, 10 nM, 0.1 μM, 1 μM, and 10 μM of N-[2-(5-methoxy-indol-3-yl)-ethyl]-commenamide, N-[2-(5-methoxy-indol-3-yl)-ethyl]-coumalylamide, N-[2-(5-methoxy-indol-3-yl)-ethyl]-comanilamide, N-[2-(5-methoxy-indol-3-yl)-ethyl]-2-methoxy-commenamide or N-[2-(5-methoxy-indol-3-yl)-ethyl]-chelidonamide for 60 minutes. The binding reaction was terminated and washed with 4 ml ice-cold 50 mM Tris-HCl buffer by vacuum filtration. Membranes were then collected, and the filters containing the bound ligands were assayed for the amount of radioactivity in a b-counter. Non-specific binding was evaluated using a reaction with 10 μM metergoline (5-HT1A), 1 μM mianserin (5-HT2A and 5-HT2c) or 10 μM serotonin (5-HT1B, 5-HT2B, 5-HT4, 5-HT6 and 5-HT7).

5-HT1A receptor = biological target: T4, 5-HT1A receptor (Homo sapiens, UniProt P08908); assay: Serotonin receptor binding, [3H] 8-OH-DPAT, CHO-K1 membranes
T4 construct: expressed in transfected cells; host or cells: CHO-K1
T4 sequence (P08908 1-422): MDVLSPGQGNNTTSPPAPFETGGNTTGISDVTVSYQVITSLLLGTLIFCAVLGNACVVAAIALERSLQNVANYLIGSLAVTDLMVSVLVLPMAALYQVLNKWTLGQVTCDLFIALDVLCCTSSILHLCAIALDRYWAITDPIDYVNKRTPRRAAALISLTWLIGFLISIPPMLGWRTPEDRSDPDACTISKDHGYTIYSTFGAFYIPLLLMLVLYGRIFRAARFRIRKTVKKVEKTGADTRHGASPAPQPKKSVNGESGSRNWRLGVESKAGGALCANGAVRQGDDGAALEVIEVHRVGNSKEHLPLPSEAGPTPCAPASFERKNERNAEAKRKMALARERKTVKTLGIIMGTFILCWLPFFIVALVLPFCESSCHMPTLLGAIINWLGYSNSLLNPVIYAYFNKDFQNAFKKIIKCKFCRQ
Method: as §2

[1] = 0.05 nM 125I-melatonin, 25° C., 4 hours, read-out: MT-2 receptor binding IC50
[2] = 0.05 nM 125I-melatonin, 25° C., 4 hours, read-out: MT-2 receptor binding KI
[3] = 0.05 nM 125I-melatonin, 25° C., 3 hours, read-out: MT-1 receptor binding IC50
[4] = 0.05 nM 125I-melatonin, 25° C., 3 hours, read-out: MT-1 receptor binding KI

T3 sequence (P28222 whole entry): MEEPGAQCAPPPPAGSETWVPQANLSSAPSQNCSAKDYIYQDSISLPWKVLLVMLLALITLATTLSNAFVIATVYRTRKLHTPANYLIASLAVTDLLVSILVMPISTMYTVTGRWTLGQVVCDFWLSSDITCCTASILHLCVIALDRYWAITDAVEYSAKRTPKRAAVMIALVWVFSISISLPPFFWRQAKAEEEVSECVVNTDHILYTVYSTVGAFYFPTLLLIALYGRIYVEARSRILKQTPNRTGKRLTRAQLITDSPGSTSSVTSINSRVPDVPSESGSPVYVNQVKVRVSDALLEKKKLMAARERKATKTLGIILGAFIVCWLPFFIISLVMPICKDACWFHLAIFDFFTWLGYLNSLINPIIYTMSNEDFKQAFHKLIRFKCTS
T2 sequence (P48039 whole entry): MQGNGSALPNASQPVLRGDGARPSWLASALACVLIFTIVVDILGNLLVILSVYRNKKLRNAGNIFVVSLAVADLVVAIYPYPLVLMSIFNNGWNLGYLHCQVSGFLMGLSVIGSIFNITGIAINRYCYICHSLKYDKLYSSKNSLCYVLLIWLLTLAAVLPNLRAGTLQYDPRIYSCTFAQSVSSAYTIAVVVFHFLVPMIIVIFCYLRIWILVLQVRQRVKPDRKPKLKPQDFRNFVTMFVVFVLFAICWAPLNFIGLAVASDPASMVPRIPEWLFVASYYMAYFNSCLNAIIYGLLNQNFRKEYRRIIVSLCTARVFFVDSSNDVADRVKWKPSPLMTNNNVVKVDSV

IC50 (5-HT1B receptor; read-out: 5-HT1B IC50) | Ki (5-HT1B receptor; read-out: 5-HT1B KI) | Structure (SMILES) | IC50 (MT-2 receptor; [1]) | Ki (MT-2 receptor; [2]) | inhibition at 10 µM (MT-2 receptor; 10 μM, 0.05 nM 125I-melatonin) | IC50 (MT-1 receptor; [3]) | Ki (MT-1 receptor; [4]) | inhibition at 10 µM (MT-1 receptor; 10 μM, 0.05 nM 125I-melatonin) | effect on hexobarbital-Na narcosis time (CD1 mice) | Changes (%) vs. Vehicle (sleep time) (CD1 mice) | Mean Sleep Time-Treatment (min) ± SE (CD1 mice) | affinity to 5-HT1B (5-HT1B receptor) | affinity to 5-HT1A (5-HT1A receptor) | IC50 (5-HT1A receptor; read-out: 5-HT1A IC50) | Ki (5-HT1A receptor; read-out: 5-HT1A KI) | affinity to MT-2 (MT-2 receptor) | affinity to MT-1 (MT-1 receptor) | also measured
– | – | COc1ccc2[nH]cc(CCNC(=O)c3cc(=O)cc(C(=O)O)o3)c2c1 [N-[2-5-methoxy-indol-3-yl)-ethyl]-chelidonamide] | 1760 nM | 910 nM | 89% | 2470 nM | 1280 nM | 80% | moderately increased the hexobarbital-Na narcosis time | +54% | 12.37 ± 1.85 min | moderate affinity | moderate affinity | 1030 nM | 580 nM | – | – | –
5440 nM | 5160 nM | COc1ccc2[nH]cc(CCNC(=O)c3cc(=O)c(OC)co3)c2c1 [N-[2-(5-methoxy-indol-3-yl)-ethyl]-2-methoxy-commenamide] | 826 nM | 429 nM | 93% | 2130 nM | 1110 nM | 76% | – | −21% | 7.70 ± 1.24 min | – | – | 1930 nM | 1100 nM | – | – | –
– | – | COc1ccc2[nH]cc(CCNC(=O)c3cc(=O)c(O)co3)c2c1 [N-[2-(5-methoxy-indol-3-yl)-ethyl]-commenamide] | – | – | – | – | – | – | significantly increased the hexobarbital-Na narcosis time | +88% | 17.13 ± 8.06 min | – | moderate affinity | – | – | high affinity | high affinity | IC50 (MT-2 receptor): 13 nM; Ki (MT-2 receptor): 7 nM; inhibition at 10 µM (MT-2 receptor): 101%; IC50 (MT-1 receptor): 24 nM; Ki (MT-1 receptor): 13 nM; inhibition at 10 µM (MT-1 receptor): 99%; IC50 (5-HT1B receptor): 3910 nM; Ki (5-HT1B receptor): 3710 nM; IC50 (5-HT1A receptor): 680 nM; Ki (5-HT1A receptor): 390 nM
1640 nM | 1550 nM | COc1ccc2[nH]cc(CCNC(=O)c3ccc(=O)oc3)c2c1 [N-[2-(5-methoxy-indol-3-yl)-ethyl]-coumalylamide] | 370 nM | 190 nM | 95% | 750 nM | 390 nM | 89% | significantly increased the hexobarbital-Na narcosis time | +194% | 23.58 ± 3.19 min | moderate affinity | – | 1970 nM | 650 nM | – | – | –

Structure (SMILES) | IC50 (5-HT1B receptor; read-out: 5-HT1B IC50) | Ki (5-HT1B receptor; read-out: 5-HT1B KI) | IC50 (MT-2 receptor; [1]) | Ki (MT-2 receptor; [2]) | inhibition at 10 µM (MT-2 receptor; 10 μM, 0.05 nM 125I-melatonin) | IC50 (MT-1 receptor; [3]) | Ki (MT-1 receptor; [4]) | inhibition at 10 µM (MT-1 receptor; 10 μM, 0.05 nM 125I-melatonin) | effect on hexobarbital-Na narcosis time (CD1 mice) | Changes (%) vs. Vehicle (sleep time) (CD1 mice) | Mean Sleep Time-Treatment (min) ± SE (CD1 mice) | affinity to 5-HT1B (5-HT1B receptor) | affinity to 5-HT1A (5-HT1A receptor) | IC50 (5-HT1A receptor; read-out: 5-HT1A IC50) | Ki (5-HT1A receptor; read-out: 5-HT1A KI) | affinity to MT-2 (MT-2 receptor) | affinity to MT-1 (MT-1 receptor) | also measured
COc1ccc2[nH]cc(CCNC(=O)c3cc(=O)cco3)c2c1 [N-[2-(5-methoxy-indol-3-yl)-ethyl]-comanilamide] | 2140 nM | 2030 nM | 65 nM | 34 nM | 100% | 42 nM | 22 nM | 98% | moderately increased the hexobarbital-Na narcosis time | +49% | 17.52 ± 3.07 min | moderate affinity | – | 1950 nM | 1110 nM | high affinity | high affinity | –
